Measurements from paper PMC8143339, “PK/PD Modeling of the PDE7 Inhibitor—GRMS-55 in a Mouse Model of Autoimmune Hepatitis” (Pharmaceutics, 2021).
Values after ≈ are worked out from the molar mass of the structure shown. Like-named read-outs stand apart in the source and are kept apart here.

Columns and labels:
PDE7A [1] = assay: in vitro PDE7A inhibition assay; type: biochemical; conditions: ratio of IC50 values
ConA-induced hepatitis = assay: Pharmacodynamic study and PK/PD/disease progression modeling in ConA-induced hepatitis; type: in vivo, female BALB/c mice; conditions: for IC50: Mus musculus, serum concentration, PK/PD model, IP 50 or 100 mg/kg, ConA 20 mg/kg IV
Method: ConA was dissolved in sterile saline (2 mg·mL^−1). The studied compounds (GRMS-55, rolipram, and BRL-50481) were dissolved in a mixture of DMSO, PEG 400, and water for injection at a ratio of 25:25:50 (v/v/v). Mice were given an IP injection of the investigated compounds or the corresponding volume of vehicle alone and, thirty minutes later, intravenously (IV) administered with ConA solution. An additional control group received vehicle alone IP instead of the studied compounds followed by IV injection of sterile saline. ConA was given at a dose of 20 mg·kg^−1. Mice were exsanguinated at several time points post-ConA injection. Blood samples were allowed to clot for 0.5 h at room temperature and then centrifuged at 3000× g for 10 min to obtain the serum, which was stored at −20 °C until further analysis.
The influence of PDE inhibitors on the levels of inflammatory mediators and transaminases in ConA-treated mice was investigated in two separate experiments. In the preliminary study, the animals were pretreated IP with GRMS-55 at a dose of 50 mg·kg^−1, the PDE4-selective inhibitor rolipram at a dose of 10 mg·kg^−1, or the PDE7-selective inhibitor BRL-50481 at a dose of 50 mg·kg^−1. Doses of the investigated compounds were chosen based on the results of previous studies. Subsequently, mice were given an IV injection of ConA and sacrificed at 8 h following mitogen dosing. The levels of TNF-α, IL-6, and IFN-γ and the activities of ALT and AST in the mouse serum were measured. This preliminary experiment allowed comparing the activity of the studied PDE inhibitors in this AIH model and helped to select the doses of GRMS-55 for a subsequent pharmacodynamic study. In the final pharmacodynamic experiment, GRMS-55 was administered at two dose levels (50 and 100 mg·kg^−1) followed by ConA administration at a dose of 20 mg·kg^−1. Animals were sacrificed at various time points post-ConA dosing (1, 2, 4, 8 and 24 h). The levels of TNF-α, IL-1β, IL-4, IL-6, IL-10, IL-12, IL-17A, and IFN-γ were measured using a multiplex Luminex assay. In addition, the activities of ALT and AST in the mouse serum were assessed. The concentration–time profiles of the selected biomarkers obtained in this experiment combined with the results of pharmacokinetic analysis allowed the development of a semi-mechanistic PK/PD/disease progression model and the investigation of concentration–effect relationships of GRMS-55.
The serum samples from the preliminary pharmacological study were analyzed using ELISA tests according to the protocols provided by the manufacturers. The TNF-α concentrations were measured using the Mouse TNF-α Quantikine ELISA Kit (R&D Systems, Minneapolis, MN, USA), while the concentrations of IL-6 and IFN-gamma were quantified by ELISA kits manufactured by Cloud-Clone Corp. (Houston, TX, USA). The absorbance of samples was measured on a POLARstar Omega multi-mode microplate reader (BMG LABTECH, Ortenberg, Germany) set at 450 nm wavelength. TNF-α, IL-1β, IL-6, IL-4, IL-10, IL-12, IL-17A, and IFN-γ serum levels in samples from pharmacodynamic experiment were determined by a premixed Magnetic Luminex Assay (R&D Systems, Inc., Minneapolis, MN, USA) according to the manufacturer’s protocol. Serum AST and ALT activities were quantified on a chemistry analyzer BS-800 (Shenzhen Mindray Bio-medical Electronics Co., Ltd., Shenzhen, China).
A PK/PD/disease progression model illustrated in Figure 1 was developed considering the mechanism of action of the investigated compound and the mechanisms of progression of ConA-induced hepatitis, i.e., the subsequent stages leading to the production and release of relevant biomarkers.
Moreover, possible interrelationships and interactions among the measured biomarkers were considered during the model building process. […]

PDE4B = conditions: reported in previous publication; read-out: IC50 for PDE4B inhibition; cited from earlier work
PDE7A [2] = conditions: reported in previous publication; read-out: IC50 for PDE7A inhibition; cited from earlier work

Structure (SMILES): Cn1c(=O)c2c(nc(NCCc3ccccc3)n2CCCC(=O)NN=Cc2ccccc2O)n(C)c1=O [GRMS-55, 4-(1,3-dimethyl-2,6-dioxo-8-(phenethylamino)-1,2,3,6-tetrahydro-7H-purin-7-yl)-N′-(2-hydroxybenzylidene)butanehydrazide]
- times weaker PDE7A inhibitor than BRL-50481 (PDE7A [1]): 3.5
- effect on serum IL-4 level (ConA-induced hepatitis; 1, 2 and 8 h post-ConA, both dose groups): decreased
- effect on ALT and AST activities (ConA-induced hepatitis; 50 or 100 mg/kg IP): significant and prominent decrease
- effect on serum IL-12 level (ConA-induced hepatitis; 4 h post-ConA, 50 and 100 mg/kg IP): significantly decreased
- effect on serum IL-1β level (ConA-induced hepatitis; 8 h post-ConA, 50 and 100 mg/kg IP): significantly decreased
- effect on serum IL-17A concentration (ConA-induced hepatitis; 8 h post-ConA, both dose levels): decreased
- IC50 (ConA-induced hepatitis; read-out: IC50_IFN-γ, concentration resulting in 50% of Imax of IFN-γ): 12.3 mg/L (≈ 24.4 µM)
- IC50 (ConA-induced hepatitis; read-out: IC50_IL-6, concentration resulting in 50% of Imax of IL-6): 13.4 mg/L (≈ 26.6 µM)
- IC50 (ConA-induced hepatitis; read-out: IC50_TNF-α, concentration resulting in 50% of Imax of TNF-α): 7.97 mg/L (≈ 15.8 µM)
- IC50 (PDE4B): 26.9 µM
- IC50 (PDE7A [2]): 7.3 µM
